We go through 19 compounds from patent US9796711B2, “Substituted pyrazolo[3,4-b]pyridin-6-carboxylic acids and method of use” (AbbVie S.àr.l., priority 2015, dated 2017).

By EC50 is commonly meant the concentration at which the effect is half-maximal.

This assay deals with T1, CFTR ΔF508 (Homo sapiens, UniProt P13569, DEL508-508).
T1 construct: bronchial epithelial cells isolated from CF patients homozygous for the CFTR ΔF508 mutation; McGill University; Asterand; University of North Carolina hAEC-CF; host or cells: primary human bronchial epithelial cells from CF patients homozygous for ΔF508
T1 sequence (P13569 with tags, fused parts or gaps DEL508-508): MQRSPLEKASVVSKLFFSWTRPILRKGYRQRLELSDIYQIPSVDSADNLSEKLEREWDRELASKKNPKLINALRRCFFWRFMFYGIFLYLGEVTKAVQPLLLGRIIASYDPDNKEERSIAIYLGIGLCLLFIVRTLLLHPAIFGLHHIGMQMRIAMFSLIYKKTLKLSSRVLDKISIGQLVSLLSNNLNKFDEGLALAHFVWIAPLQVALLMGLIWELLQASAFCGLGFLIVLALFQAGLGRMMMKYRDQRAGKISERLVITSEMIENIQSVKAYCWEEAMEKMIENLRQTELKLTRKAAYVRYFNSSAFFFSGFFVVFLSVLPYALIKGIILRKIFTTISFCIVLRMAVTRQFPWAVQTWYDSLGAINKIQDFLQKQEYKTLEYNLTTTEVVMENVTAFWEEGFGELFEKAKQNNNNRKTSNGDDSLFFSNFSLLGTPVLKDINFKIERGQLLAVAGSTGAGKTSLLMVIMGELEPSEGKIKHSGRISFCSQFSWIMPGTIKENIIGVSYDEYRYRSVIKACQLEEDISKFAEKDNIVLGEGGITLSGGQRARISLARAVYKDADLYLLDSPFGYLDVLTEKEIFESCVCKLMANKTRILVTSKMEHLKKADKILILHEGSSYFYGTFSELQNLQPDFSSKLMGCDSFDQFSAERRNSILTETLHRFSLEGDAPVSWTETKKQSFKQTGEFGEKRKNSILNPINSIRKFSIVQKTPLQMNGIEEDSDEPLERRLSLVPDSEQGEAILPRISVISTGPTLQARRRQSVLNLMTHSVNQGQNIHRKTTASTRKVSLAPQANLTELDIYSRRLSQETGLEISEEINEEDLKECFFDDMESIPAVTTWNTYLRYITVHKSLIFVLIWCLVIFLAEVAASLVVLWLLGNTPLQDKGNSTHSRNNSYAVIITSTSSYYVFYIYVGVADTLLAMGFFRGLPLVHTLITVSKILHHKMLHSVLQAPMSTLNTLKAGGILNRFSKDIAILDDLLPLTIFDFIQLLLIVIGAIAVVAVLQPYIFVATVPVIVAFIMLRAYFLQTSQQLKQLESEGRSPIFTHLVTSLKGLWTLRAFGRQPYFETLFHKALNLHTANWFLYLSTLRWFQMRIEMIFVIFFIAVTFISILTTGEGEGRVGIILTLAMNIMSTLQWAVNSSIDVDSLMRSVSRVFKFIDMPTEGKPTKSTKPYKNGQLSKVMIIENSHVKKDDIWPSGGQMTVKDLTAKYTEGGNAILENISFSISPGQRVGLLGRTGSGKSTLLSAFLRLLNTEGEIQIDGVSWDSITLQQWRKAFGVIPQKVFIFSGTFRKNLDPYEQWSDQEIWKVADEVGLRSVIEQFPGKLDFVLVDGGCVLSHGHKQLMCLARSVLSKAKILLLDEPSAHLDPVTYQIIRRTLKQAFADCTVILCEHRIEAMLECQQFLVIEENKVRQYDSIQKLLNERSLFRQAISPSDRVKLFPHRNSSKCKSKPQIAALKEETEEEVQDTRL
Nature of the assay: Chronic TECC assay on primary bronchial epithelial cells (corrector, co-corrector and potentiator). The class given is cell-based. How it is done: Primary Bronchial Epithelial Cells Protocol
The TECC (Tranepithelial Clamp Circuit, EP-design) assay measures the functionality of the cystic fibrosis Transmembrane Conductance regulator (CFTR) by measuring the short circuit current (Isc) generated over the basolateral and apical membrane of lung epithelial cells. In TECC the transepithelial potential PD and transepithelial resistance (Rt)) are measured in an open circuit and transformed to Ieq using Ohm's law. 24 Wells can be measured simultaneously allowing a higher throughput compared to Ussing chambers.
For this purpose, bronchial epithelial cells isolated from CF patients homozygous for the CFTR ΔF508 mutation (hAEC-CF, Epithelix, Geneva, Switzerland; McGill University, Montreal, Qc; Asterand, Detroit, Mich.; University of North Carolina, Chapel Hill, N.C.) are plated on type IV collagen-coated Transwell® supports (Costar). Human airway epithelia are generated by provision of an air-liquid interface for 21 days to form well-differentiated polarized cultures that resemble in vivo pseudo-stratified ciliated epithelium (Fulcher, M. L., Gabriel, S., Burns, K. A., Yankaskas, J. R., Randell, S. H., 2005. Well-differentiated human airway epithelial cell cultures. Methods Mol. Med. 107, 183-206). The differentiated cells are treated with test corrector compound(s) (corrector alone or in combination with co-corrector, 4-[(2R,4R)-4-({[1-(2,2-difluoro-1,3-benzodioxol-5-yl)cyclopropyl]carbonyl}amino)-7-methoxy-3,4-dihydro-2H-chromen-2-yl]benzoic acid (G924806/A-1618261) (“acute”) or test corrector compounds, co-corrector and potentiator, N-(3-carbamoyl-5,5,7,7-tetramethyl-4,7-dihydro-5H-thieno[2,3-c]pyran-2-yl)-1H-pyrazole-5-carboxamide GLPG1837, (“chronic”) for 24 hours basolaterally to allow sufficient expression of properly folded CFTR protein on the membrane. All compound plates contained negative controls (DMSO) and positive controls (0.15 μM, 4-[(2R,4R)-4-({[1-(2,2-difluoro-1,3-benzodioxol-5-yl)cyclopropyl]carbonyl}amino)-7-(difluoromethoxy)-3,4-dihydro-2H-chromen-2-yl]benzoic acid).
For electrophysiological recording of the “chronic” experiments, the human airway epithelia are mounted in the TECC heating plate for electrophysiological measurement and kept at 37° C. The epithelia are bathed in a NaCl-Ringer solution (120 mM NaCl, 25 mM NaHCO3, 1.2 mM CaCl2, 1.2 mM MgCl2, 0.8 mM KH2PO4, 0.8 mM K2HPO4, pH 7.4, 5 mM glucose) on both the basolateral and apical sides. Test compounds (corrector, co-corrector, 4-[(2R,4R)-4-({[1-(2,2-difluoro-1,3-benzodioxol-5-yl)cyclopropyl]carbonyl}amino)-7-(difluoromethoxy)-3,4-dihydro-2H-chromen-2-yl]benzoic acid, and potentiator, N-(3-carbamoyl-5,5,7,7-tetramethyl-4,7-dihydro-5H-thieno[2,3-c]pyran-2-yl)-1H-pyrazole-5-carboxamide), are re-added to the recording solution prior to measurement. Apical amiloride is used to inhibit the endogenous ENaC currents while forskolin is applied on both apical and basolateral side to stimulate CFTR. Measurements are done during a 20 minute timeframe with recordings every 2 minutes. The increase in Ieq is used as a measure for the increased CFTR activity, EC50 values can be generated by measuring impact of different concentrations of compound on Ieq on primary cells, for this purpose each transwell is treated with a different compound concentration. Inhibitor-172, an inhibitor specific for CFTR, is used to test the specificity of the tested compounds. Raw data were normalized to percentage activity values using the equation: 100×(Sample−Negative control)/(Positive control−Negative Control).

Where [1] appears, read: chronic TECC, AUC = full area under the curve upon forskolin stimulation, with co-corrector and potentiator, 24 hours, read-out: EC50 (nM) (AUC).
Where [2] appears, read: chronic TECC, AUC = full area under the curve upon forskolin stimulation, with co-corrector and potentiator, 24 hours.
[3] abbreviates: chronic TECC, Ieq = calculations based on the maximum current, with co-corrector and potentiator, 24 hours.
[4] abbreviates: chronic TECC, Ieq = calculations based on the maximum current, with co-corrector and potentiator, 24 hours, read-out: EC50 (nM) (Ieq).

SMILES strings stand for the structures. Read-outs that look alike come from different tables or passages of the source.

Regarding `CN1CCC2(CC1)CCN(c1cc(C(=O)O)nc3c1c(C1CCC1)nn3-c1ccccc1)CC2` [compound 699, 3-cyclobutyl-4-(9-methyl-3,9-diazaspiro[5.5]undecan-3-yl)-1-phenyl-1H-pyrazolo[3,4-b]pyridine-6-carboxylic acid], under setting [1], the EC50 amounted to 162 nM. Regarding `CC(C)c1nn(-c2ccc(F)cc2)c2nc(C(=O)O)cc(N3CCC(CN4CCCCC4)CC3)c12` [compound 790, 1-(4-fluorophenyl)-4-{4-[(piperidin-1-yl)methyl]piperidin-1-yl}-3-(propan-2-yl)-1H-pyrazolo[3,4-b]pyridine-6-carboxylic acid], the “% Activity at 1 μM (AUC**)” value under setting [2] is 220%. The EC50 under setting [1] was found to be 120 nM.

Take `O=C(O)c1cc(N2CCC(N3CCOCC3)CC2)c2c(C3CCC3)nn(-c3ccc(F)cc3)c2n1` [compound 679, 3-cyclobutyl-1-(4-fluorophenyl)-4-[4-(morpholin-4-yl)piperidin-1-yl]-1H-pyrazolo[3,4-b]pyridine-6-carboxylic acid]: under setting [2], the “% Activity at 1 μM (AUC**)” value was 373.3333%. The EC50 under setting [1] amounted to 28 nM. As for `CC(C)c1nn(-c2cc(F)cc(F)c2)c2nc(C(=O)O)cc(-c3ccc(N4CCOCC4)cc3)c12` [compound 268, 1-(3,5-difluorophenyl)-4-[4-(morpholin-4-yl)phenyl]-3-(propan-2-yl)-1H-pyrazolo[3,4-b]pyridine-6-carboxylic acid], under setting [3], the “% Activity at 1 μM (Ieq*)” value is 267%. Besides, the EC50 under setting [4] was 25 nM. As for `CO[C@@H]1CCN(CC2CCN(c3cc(C(=O)O)nc4c3c(C3CCC3)nn4-c3ccccc3)CC2)C1` [compound 803, 3-cyclobutyl-4-(4-{[(3R)-3-methoxypyrrolidin-1-yl]methyl}piperidin-1-yl)-1-phenyl-1H-pyrazolo[3,4-b]pyridine-6-carboxylic acid], under setting [2], the “% Activity at 1 μM (AUC**)” value is reported as 161.4501%. For `CC(C)c1nn(-c2ccc(F)cc2)c2nc(C(=O)O)cc(N3CCC(C(C)(C)O)CC3)c12` [compound 656, 1-(4-fluorophenyl)-4-[4-(2-hydroxypropan-2-yl)piperidin-1-yl]-3-(propan-2-yl)-1H-pyrazolo[3,4-b]pyridine-6-carboxylic acid], the EC50 under setting [1] was determined as 48 nM. In the case of `CC(C)Oc1cccc(-n2nc(C3CCC3)c3c(N4CCC(N5CCOCC5)CC4)cc(C(=O)O)nc32)n1` [compound 924, 3-cyclobutyl-4-[4-(morpholin-4-yl)piperidin-1-yl]-1-{6-[(propan-2-yl)oxy]pyridin-2-yl}-1H-pyrazolo[3,4-b]pyridine-6-carboxylic acid], the “% Activity at 3 μM (AUC)” value under setting [2] is recorded as 235.9027%. The EC50 under setting [1] was determined as 10.6 nM. In the case of `CC(C)c1nn(-c2cccc(N3CCOCC3)c2)c2nc(C(=O)O)cc(-c3cnc(N4CCC(C#N)CC4)nc3)c12` [compound 204, 4-[2-(4-cyanopiperidin-1-yl)pyrimidin-5-yl]-1-[3-(morpholin-4-yl)phenyl]-3-(propan-2-yl)-1H-pyrazolo[3,4-b]pyridine-6-carboxylic acid], under setting [3], the “% Activity at 1 μM (Ieq*)” value is on record as 241%. Moreover, the EC50 under setting [4] is less than 30 nM.

Turning to `CN(C)C[C@@H](F)C1CCN(c2cc(C(=O)O)nc3c2c(C2CCC2)nn3-c2ccccc2)CC1` [compound 456, 3-cyclobutyl-4-{4-[(1S)-2-(dimethylamino)-1-fluoroethyl]piperidin-1-yl}-1-phenyl-1H-pyrazolo[3,4-b]pyridine-6-carboxylic acid], the EC50 under setting [1] was determined as 120 nM. Take `CO[C@H]1CCC[C@@H](n2nc(C(C)C)c3c(-c4ccc(N5CCOCC5)cc4)cc(C(=O)O)nc32)C1` [compound 205, 1-[(1R,3S)-3-methoxycyclohexyl]-4-[4-(morpholin-4-yl)phenyl]-3-(propan-2-yl)-1H-pyrazolo[3,4-b]pyridine-6-carboxylic acid]: the “% Activity at 1 μM (Ieq*)” value under setting [3] was 140%. Also, the EC50 under setting [4] is greater than 1000 nM. Consider `CC(C)c1nn(-c2ccc(F)cc2)c2nc(C(=O)O)cc(N3CCC(C(C)N4CCCC4)CC3)c12` (centres unmarked) [compound 789, 1-(4-fluorophenyl)-3-(propan-2-yl)-4-{4-[1-(pyrrolidin-1-yl)ethyl]piperidin-1-yl}-1H-pyrazolo[3,4-b]pyridine-6-carboxylic acid], for which the “% Activity at 1 μM (AUC**)” value under setting [2] was determined as 235%.

As for `CC(C1CCN(c2cc(C(=O)O)nc3c2c(C2CCC2)nn3-c2ccccc2)CC1)N1CCOCC1` (centres unmarked) [compound 683, 3-cyclobutyl-4-{4-[1-(morpholin-4-yl)ethyl]piperidin-1-yl}-1-phenyl-1H-pyrazolo[3,4-b]pyridine-6-carboxylic acid], the “% Activity at 1 μM (AUC**)” value under setting [2] came out at 196.675%. Turning to `CC(C)c1nn(-c2cccc(N3CCOCC3)n2)c2nc(C(=O)O)cc(-c3ccc(N4CCOCC4)cc3)c12` [compound 244, 4-[4-(morpholin-4-yl)phenyl]-1-[6-(morpholin-4-yl)pyridin-2-yl]-3-(propan-2-yl)-1H-pyrazolo[3,4-b]pyridine-6-carboxylic acid], the “% Activity at 1 μM (Ieq*)” value under setting [3] is reported as 210%. Also, the EC50 under setting [4] was less than 30 nM. Take `O=C(O)c1cc(N2CCC(CN3CCCC3)CC2)c2c(C3CCC3)nn(-c3ccccc3)c2n1` [compound 557, 3-cyclobutyl-1-phenyl-4-{4-[(pyrrolidin-1-yl)methyl]piperidin-1-yl}-1H-pyrazolo[3,4-b]pyridine-6-carboxylic acid]: under setting [2], the “% Activity at 1 μM (AUC**)” value was 262% and the “% Activity at 3 μM (AUC)” value turned out to be 384%. Turning to `O=C(O)c1cc(N2CCC(N3CCN(C4CC4)CC3)CC2)c2c(C3CCC3)nn(-c3ccc(F)cc3)c2n1` [compound 886, 3-cyclobutyl-4-[4-(4-cyclopropylpiperazin-1-yl)piperidin-1-yl]-1-(4-fluorophenyl)-1H-pyrazolo[3,4-b]pyridine-6-carboxylic acid], under setting [2], the “% Activity at 1 μM (AUC**)” value was determined as 282.5409%. `O=C(O)c1cc(N2CCC3(CC2)CCN(C2CCC2)CC3)c2c(C3CCC3)nn(-c3ccc(F)cc3)c2n1` [compound 894, 3-cyclobutyl-4-(9-cyclobutyl-3,9-diazaspiro[5.5]undecan-3-yl)-1-(4-fluorophenyl)-1H-pyrazolo[3,4-b]pyridine-6-carboxylic acid]: the “% Activity at 1 μM (AUC**)” value under setting [2] worked out at 300%.

For `O=C(O)c1cc(N2CCC(N3CCOCC3)CC2)c2c(C3CCC3)nn(-c3ccccc3)c2n1` [compound 560, 3-cyclobutyl-4-[4-(morpholin-4-yl)piperidin-1-yl]-1-phenyl-1H-pyrazolo[3,4-b]pyridine-6-carboxylic acid], the EC50 was less than 30 nM. For `COC1CCN(C2CCN(c3cc(C(=O)O)nc4c3c(C3CCC3)nn4-c3ccc(F)cc3)CC2)CC1` [compound 892, 3-cyclobutyl-1-(4-fluorophenyl)-4-(4-methoxy[1,4′-bipiperidin]-1′-yl)-1H-pyrazolo[3,4-b]pyridine-6-carboxylic acid], under setting [2], the “% Activity at 1 μM (AUC**)” value is 188.3291%. In addition, under setting [1], the EC50 is 900 nM. For `O=C(O)c1cc(N2CCC3(CC2)CCN(C2CC2)CC3)c2c(C3CCC3)nn(-c3ccc(F)cc3)c2n1` [compound 887, 3-cyclobutyl-4-(9-cyclopropyl-3,9-diazaspiro[5.5]undecan-3-yl)-1-(4-fluorophenyl)-1H-pyrazolo[3,4-b]pyridine-6-carboxylic acid], the “% Activity at 1 μM (AUC**)” value under setting [2] is listed as 273.3871%. In addition, under setting [1], the EC50 amounted to 1340 nM.
